Experimental data reported in patent US7259232B1, “Preferred segments of neural thread protein” (Nymox Pharmaceutical Corporation, priority 2000, dated 2007).

B1: Protein G: Protein G, binds antibody through the Fc region; used as column (protein)
chain: TYKLILNGKTLKGETTTEAVDAATAEKVFKQYANDNGVDGEWTYDDATKTFTVTEKPEVIDASELTPAVTTYKLVINGKTLKGETTTKAVDAETAEKAFKQYANDNGVDGVWTYDDATKTFTVTE

What was measured:
rabbit IgG = experiment: Precipitation of rabbit immunoglobulin by Harlil peptide (Example 3); details: start 3.4 mg RGG + 1 mg NTP-3, pH 7, dialyzed overnight
Protocol: The purpose of this example was to show the self-aggregation ability of a Harlil peptide. The Harlil peptide NTP-3 forms disulfide bonds (because of the cysteine residue) and dimerizes at neutral pH. Since the dimerized peptide can bind two immunoglobulins, it can cause precipitation.
1 mg of the Harlil peptide NTP-3 in 1 mL of dimethylsulfoxide (DMSO) was added to 3.4 mg of rabbit IgG (Jackson Immunoresearch, West Grove, Pa.) at pH 7. The mixture was allowed to dialyze over night, and a clear white precipitate was observed the next morning. The precipitate was removed by centrifugation and the protein concentration of the supernatant was determined by absorbance at 280 nm using a Perkin Elmer spectrophotometer model Lambda 3B. Precipitation of immunoglobulin is prevented at a low pH, e.g., pH of 3.5 or less 3.5.

NTP [1] = experiment: NTP immunoreactivity of Harlil peptides conjugated to rabbit IgG (Example 1); format: binding; details: peptides conjugated to maleimide activated Rabbit IgG
NTP, sequence (as listed by the source): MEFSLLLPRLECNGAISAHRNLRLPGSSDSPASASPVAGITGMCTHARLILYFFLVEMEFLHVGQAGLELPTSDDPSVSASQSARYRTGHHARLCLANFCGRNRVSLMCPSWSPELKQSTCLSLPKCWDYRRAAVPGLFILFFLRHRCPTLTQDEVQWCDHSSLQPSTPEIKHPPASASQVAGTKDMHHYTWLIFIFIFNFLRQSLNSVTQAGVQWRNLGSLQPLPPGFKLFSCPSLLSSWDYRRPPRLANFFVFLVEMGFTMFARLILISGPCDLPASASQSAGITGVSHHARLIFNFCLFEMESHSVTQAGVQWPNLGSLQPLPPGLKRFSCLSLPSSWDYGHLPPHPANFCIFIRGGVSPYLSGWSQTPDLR
From the text: The following Harlil sequences were synthesized (Synpep, Dublin Calif.) and conjugated to maleimide activated Rabbit IgG (Jackson Immunoresearch, West Grove Pa.) and assessed for their NTP immunoreactivity. […] (SEQ ID NOS 4-11, respectively, in order of appearance)
Conjugation to carrier proteins was through a cysteine. Thus, peptides NTP-1 and NTP-2 produced mixed conjugate results because there is more than one cysteine residue. Therefore, for peptides NTP-5 and NTP-6, the secondary cysteine was blocked with ACM.

[2] = test system: NTP3-RGG coated microtiter plate; experiment: Microtiter plate assay: inhibition of conjugate binding to Harlil peptide coated plate (Example 5); details: monomer (unconjugated) peptide; peroxidase conjugated rabbit IgG; FIG. 2
Protocol: Preparation of Microtiter Plate: The Harlil peptide/immunoglobulin complex NTP3-RGG, in a ratio of 30:1 and prepared as in Example 4, was coated on an Immulon 4 microtiter plate (Dynex, Chantilly, Va.) at a concentration of 0.5 μg/well.
Standards: Recombinant NTP in TBS (described in de la Monte et al., J. of Neuropath. Exp. Neurol., 55:1038-1050 (1996)). 0.01% azide (Nymox Pharm. Corp., Lot 4-7-98), was serially diluted into TBS. 100 μl of each dilution was incubated at pH 3.5 for one hour. The dilutions were then washed for fifteen minutes in TBS, 0.1% albumin, and 0.05% Tween 80. This was followed by 3 washes in TBS and 0.05% Tween 80. Microtiter Plate Assay: 100 μl of 1:8000 dilution of peroxidase conjugated rabbit IgG (Jackson Immunoresearch, West Grove, Pa.) was then added and allowed to react for 30 minutes. The microtiter plate was washed twice with TBS and 0.05% Tween 80, followed by the addition of 150 μl of […] (TMB) (Serex Inc., Maywood, N.J.). The mixture was then incubated for 10 min. and stopped with 50 μl of 2 N HCl. Absorbance was read in a SLT 340 ATTC spectrophotometer.

NTP [3] = experiment: Affinity purification of NTP from AD patient urine on NTP-3 agarose column, activity by 7C Gold strip (Example 2); format: binding, human; details: pH 2 eluate, gel bands assayed with 7C Gold, activity only in 35-45 kD band
Protocol: Preparation of the Urine Sample Containing NTP for Testing: The biological source of NTP used was the urine of a patient (BOU1) diagnosed with AD. Before application to the column material, the biological sample was processed according to the following protocol for processing of urine for AD testing: • 1. The urine was tested with an Ames Multistix™ (Bayer, Ind.). […] The urine was centrifuged at 3000×g for 15 minutes to remove cellular debris. • 3. The urine was filtered using a syringe through a 0.22 μm cellulose acetate filter, and the filtrate was brought to 0.05% azide. • 4. The resultant aliquot was placed in the top reservoir of an Amicon Centricon® YM-10 Millipore, and centrifuged at 3000×g for one hour. • 5. […] Protein Concentration: The protein concentration in the eluate was 108 μg, as determined by Coomassie Blue staining (BioRad, Hercules, Calif.). […] Protein concentration was 145 μg, as determined by Bicinchoninic Acid Kit (Cat. # 23223, BioRad). Absorbance corrected for the buffer at 280 nm was 390, indicating 390 μg of protein. The larger protein amount obtained with absorbance measurement is likely a result of the presence of a large amount of aromatic amino acids in NTP, which can cause overestimation of protein using this measurement technique. […]

NTP [4] = experiment: Protein G column pass-through of NTP positive and negative samples (Example 7); format: binding; details: NTP positive and negative samples passed through Protein G column; NTP not significantly reduced
From the text: Protein G binds antibody through the Fc region. […] Specifically, since Harlil peptides recognize Harlil peptides, Harlil peptides recognize the Fc region of antibody, and Protein G recognizes the Fc region of antibody, this experiment determined whether Protein G recognizes NTP.
Both an NTP positive and an NTP negative sample were passed through a Protein G column.

Row | Molecule | % Protein Precipitated (rabbit IgG) [%] | NTP immunoreactivity (NTP [1]) | inhibition of conjugate binding to the plate [2] | binding of NTP by NTP-3 affinity column (NTP [3]) | binding of Protein G to NTP (NTP [4])
1 | C A R Y R T G H H A R L M (CARYRTGHHARLM) [NTP-3] | 39 | good reactivity | inhibits the binding of conjugate to the plate | selectively bound the NTP protein | 
2 | B1 |  |  |  |  | does not bind to NTP
